From patent US20100216805A1, “MODULATION OF NEUROGENESIS USING D-CYCLOSERINE COMBINATIONS” (BrainCells, Inc., priority 2009, published 2010)
Where “and” joins values, the source holds several entries; their conditions need not be identical. Identical values can stand only once. Like-named read-outs stand apart in the source and are kept apart here.

What was measured:
[1] = tested on: Human neural stem cells (hNSCs); experiment: Neuronal differentiation of human neural stem cells (TUJ-1 staining), concentration response and combination index; type: cell-based
Method: Mitogen-free test media with a positive control for neuronal differentiation was used along with basal media without growth factors as a negative control.
To determine the most efficacious dose and dose ratio of D-cycloserine in combination with pindolol or (S)-(−)-pindolol for future preclinical and clinical studies, dose ranging studies were conducted examining synergy for neurogenesis. […] The pindolol or (S)-(−)-pindolol concentrations were varied based on the respective ratios tested. Individual dose response curves were prepared for each concentration ratio as previously described with cells stained with TUJ-1 antibody for the detection of neuronal differentiation.
The presence of synergy was determined by use of a combination index (CI). […] The CI is a quantitative measure of the nature of drug interactions, comparing the EC50's of two compounds, when each is assayed alone, to the EC50 of each compound when assayed in combination. The combination index (CI) is equal to the following formula: […]
where C1 and C2 are the concentrations of a first and a second compound, respectively, resulting in 50% activity in neuronal differentiation when assayed in combination; and IC1 and IC2 are the concentrations of each compound resulting in 50% activity when assayed independently.

[2] = target: human mGlu2 (Homo sapiens, UniProt Q14416); settings: in vitro; low nanomolar range; read-out: EC50 against human mGlu2 receptor; cited from earlier work
Chain of human mGlu2 (Q14416 19-872): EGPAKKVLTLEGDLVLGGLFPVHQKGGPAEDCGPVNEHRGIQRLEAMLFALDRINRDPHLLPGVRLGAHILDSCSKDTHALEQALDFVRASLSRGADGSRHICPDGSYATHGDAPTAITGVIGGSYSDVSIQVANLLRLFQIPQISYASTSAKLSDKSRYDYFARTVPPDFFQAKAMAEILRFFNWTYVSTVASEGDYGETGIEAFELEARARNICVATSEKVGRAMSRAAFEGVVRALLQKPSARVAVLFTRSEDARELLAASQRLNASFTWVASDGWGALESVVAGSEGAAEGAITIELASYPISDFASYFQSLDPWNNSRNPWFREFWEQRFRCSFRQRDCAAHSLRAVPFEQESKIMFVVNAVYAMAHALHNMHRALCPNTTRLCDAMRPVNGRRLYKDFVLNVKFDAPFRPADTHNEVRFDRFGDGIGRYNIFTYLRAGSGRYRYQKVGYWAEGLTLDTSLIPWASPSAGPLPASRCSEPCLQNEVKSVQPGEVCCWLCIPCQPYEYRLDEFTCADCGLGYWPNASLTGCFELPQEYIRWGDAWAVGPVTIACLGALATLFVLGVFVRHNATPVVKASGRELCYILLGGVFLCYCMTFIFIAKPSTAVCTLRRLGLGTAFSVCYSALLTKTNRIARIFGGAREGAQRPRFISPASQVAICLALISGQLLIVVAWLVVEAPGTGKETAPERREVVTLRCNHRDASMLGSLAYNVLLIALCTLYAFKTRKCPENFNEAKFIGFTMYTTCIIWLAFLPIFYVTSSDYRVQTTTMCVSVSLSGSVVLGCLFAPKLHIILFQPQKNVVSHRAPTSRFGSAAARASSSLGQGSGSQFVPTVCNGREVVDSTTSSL

[3] = target: human mGlu3 (Homo sapiens, UniProt Q14832); settings: in vitro; low nanomolar range; read-out: EC50 against human mGlu3 receptor; cited from earlier work
Chain of human mGlu3 (Q14832 23-879): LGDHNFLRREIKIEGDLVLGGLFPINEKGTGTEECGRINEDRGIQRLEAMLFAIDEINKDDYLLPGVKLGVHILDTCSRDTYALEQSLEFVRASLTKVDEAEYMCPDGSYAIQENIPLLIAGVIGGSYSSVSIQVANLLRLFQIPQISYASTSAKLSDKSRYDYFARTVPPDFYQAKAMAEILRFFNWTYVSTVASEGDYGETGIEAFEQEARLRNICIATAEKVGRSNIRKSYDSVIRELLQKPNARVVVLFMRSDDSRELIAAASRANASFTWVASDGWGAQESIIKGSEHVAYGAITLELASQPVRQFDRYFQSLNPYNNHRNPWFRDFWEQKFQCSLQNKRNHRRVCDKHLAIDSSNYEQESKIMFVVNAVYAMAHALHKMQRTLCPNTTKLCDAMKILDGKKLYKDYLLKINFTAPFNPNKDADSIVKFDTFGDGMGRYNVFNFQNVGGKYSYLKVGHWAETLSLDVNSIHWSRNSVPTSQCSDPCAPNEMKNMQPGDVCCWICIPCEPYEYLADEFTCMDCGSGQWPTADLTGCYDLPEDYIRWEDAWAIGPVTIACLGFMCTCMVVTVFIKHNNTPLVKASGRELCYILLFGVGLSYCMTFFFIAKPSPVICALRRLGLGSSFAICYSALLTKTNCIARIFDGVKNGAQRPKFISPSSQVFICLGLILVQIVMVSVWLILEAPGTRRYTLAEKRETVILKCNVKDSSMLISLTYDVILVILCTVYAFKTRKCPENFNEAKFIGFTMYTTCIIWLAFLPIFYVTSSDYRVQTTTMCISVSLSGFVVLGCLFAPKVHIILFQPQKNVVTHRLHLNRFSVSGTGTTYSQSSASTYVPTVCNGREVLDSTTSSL

[4] = tested on: KA, AMPA, and NMDA iGlu receptors; settings: cited from earlier work
[5] = target: mGluR2 (Homo sapiens, UniProt Q14416); settings: read-out: IC50 against mGluR2; cited from earlier work
Chain of mGluR2 (Q14416 19-872): as the sequence (Q14416 19-872) above

[6] = target: mGluR3 (Homo sapiens, UniProt Q14832); settings: read-out: IC50 against mGluR3; cited from earlier work
Chain of mGluR3 (Q14832 23-879): as the sequence (Q14832 23-879) above

[7] = tested on: Group I or Group III receptors; settings: at sub-mM concentrations; cited from earlier work
[8] = Homo sapiens, Neural stem cell, agent run independently, % of neuronal positive control, basal media subtracted, figure legends, read-out: EC50 when used alone, neuronal differentiation

For `CCC(=O)c1c(O)cc(O)cc1O` [flopropione], the EC50 [1, 8] was 16.6 µM.
For `CC(C)NC[C@H](O)COc1cccc2[nH]ccc12` [(S)-(−)-Pindolol], the EC50 ([1]; Table 2, (S)-(−)-pindolol alone, run with the ratio of that row, read-out: Solo EC50's (S)-(−)-Pindolol) was 2.8 µM and 1.82 µM and 1.78 µM and the EC50 ([1]; agent run independently, % of neuronal positive control, basal media subtracted, figure legends, read-out: EC50 when used alone, neuronal differentiation) was 1.8 µM.
`COCCOC(=O)C1=C(C)NC(C)=C(C(=O)OC(C)C)C1c1cccc([N+](=O)[O-])c1` (centres unmarked) [nimodipine] gave an EC50 [1, 8] of 100 µM.
Work on `CC1(C)O[C@@H]2[C@@H](CO[C@@]3(COS(N)(=O)=O)OC(C)(C)O[C@@H]23)O1` [topiramate] yielded an EC50 [1, 8] of 7.1 µM.
In the case of `CC(CCc1ccccc1)NCC(O)c1ccc(O)c(C(N)=O)c1` (centres unmarked) [labetalol], the EC50 [1, 8] is reported as 5.5 µM.
Work on `NC(=O)C[S+]([O-])C(c1ccccc1)c1ccccc1` (centres unmarked) [modafinil] yielded an EC50 ([1]; Homo sapiens, Neural stem cell, read-out: EC50 when used alone, neuronal differentiation) of 11 µM.
For `CC(C)NCC(O)COc1cccc2[nH]ccc12` (centres unmarked) [Pindolol], the EC50 ([1]; Homo sapiens, Neural stem cell, Table 1, pindolol alone, run with the ratio of that row, read-out: Solo EC50's Pindolol) was 1.43 µM, the EC50 [1, 8] was 1.4 µM and the EC50 ([1]; Table 1, pindolol alone, run with the ratio of that row, read-out: Solo EC50's Pindolol) was 1.32 µM and 1.98 µM and 1.65 µM.
Work on `CC(=O)N[C@@H](CS)C(=O)O` [N-acetyl-L-cysteine] yielded an EC50 [1, 8] of 114 µM.
Molecule `Nc1nc2ncc(CNc3ccc(C(=O)N[C@@H](CCC(=O)O)C(=O)O)cc3)nc2c(=O)[nH]1` [folic acid] has an EC50 [1, 8] of 1.09 µM.
For `N[C@@]1(C(=O)O)CO[C@H]2[C@H](C(=O)O)[C@H]21` [LY379268, (−)-2-Oxa-4-aminobicyclohexane-4,6-dicarboxylic acid], the EC50 [2] is listed as less than 0.01 µM and the EC50 [3] is listed as less than 0.01 µM.
For `N[C@@H]1CONC1=O` [D-cycloserine, (4R)-4-amino-1,2-oxazolidin-3-one], the EC50 ([1]; Homo sapiens, Neural stem cell, Table 1, D-cycloserine alone, run with the ratio of that row, read-out: Solo EC50's D-cycloserine) was 7.91 µM, the EC50 ([1]; Homo sapiens, Neural stem cell, Table 2, D-cycloserine alone, run with the ratio of that row, read-out: Solo EC50's D-cycloserine) was 5.62 µM and the EC50 ([1]; Table 1, D-cycloserine alone, run with the ratio of that row, read-out: Solo EC50's D-cycloserine) was 8.48 µM and 7.41 µM. For the same molecule, the EC50 ([1]; Table 2, D-cycloserine alone, run with the ratio of that row, read-out: Solo EC50's D-cycloserine) was 8.48 µM.
Work on `CC(C)(C)NCC(O)COc1cccc2c1CC(O)C(O)C2` (centres unmarked) [nadolol] yielded an EC50 [1, 8] of 6.7 µM.
For `N[C@](CC1c2ccccc2Oc2ccccc21)(C(=O)O)[C@H]1C[C@@H]1C(=O)O` [LY341495, (2S)-2-amino-2-(1S,2S-2-carboxycycloprop-1-yl)-3-(xanth-9-yl) propanoic acid], the “activity against KA, AMPA, and NMDA iGlu receptors” value [4] is given as “substantially inactive”.
For `NC1(C(=O)O)CCc2cc(P(=O)(O)O)ccc21` (racemic) [APICA, (RS)-1-amino-5-phosphonoindan-1-carboxylic acid], the IC50 [5] is given as roughly 30 µM, the IC50 [6] is given as roughly 30 µM and the “activity against Group I or Group III receptors” value [7] is given as “no appreciable activity”.
